Measured values taken from PubChem BioAssay AID1259407 (Chemical Carcinogenesis Research Information System (CCRIS), 2018).
Activity calls are given as the source filed them. How the calls were made is not given here.

Test system: CCRIS mutagenicity, Ames/micronucleus/aberration tests
Assay: CCRIS mutagenicity studies
[1] = Test System: AMES SALMONELLA TYPHIMURIUM, Strain/Indicator: TA97, Metabolic Activation: NONE, Method: STANDARD PLATE
[2] = Test System: AMES SALMONELLA TYPHIMURIUM, Strain/Indicator: TA98, Metabolic Activation: NONE, Method: STANDARD PLATE
[3] = Test System: AMES SALMONELLA TYPHIMURIUM, Strain/Indicator: TA98, Metabolic Activation: RAT, LIVER, S-9, AROCLOR 1254, Method: STANDARD PLATE
[4] = Test System: AMES SALMONELLA TYPHIMURIUM, Strain/Indicator: TA100, Metabolic Activation: NONE, Method: STANDARD PLATE
[5] = Test System: AMES SALMONELLA TYPHIMURIUM, Strain/Indicator: TA98, Metabolic Activation: NONE, Method: PREINCUBATION
[6] = Test System: AMES SALMONELLA TYPHIMURIUM, Strain/Indicator: TA100, Metabolic Activation: NONE, Method: PREINCUBATION

Measured: mutagenic call

CN(C)c1ccc(C(=C2C=CC(=N)C=C2)c2ccc(N(C)C)cc2)cc1
inactive: [1] inactive; negative | Test System: AMES SALMONELLA TYPHIMURIUM, Strain/Indicator: TA97, Metabolic Activation: RAT, LIVER, S-9, AROCLOR 1254, Method: STANDARD PLATE inactive; negative | [2] inactive; negative | [3] inactive; negative | [4] inactive; negative | Test System: AMES SALMONELLA TYPHIMURIUM, Strain/Indicator: TA100, Metabolic Activation: RAT, LIVER, S-9, AROCLOR 1254, Method: STANDARD PLATE inactive; negative | Test System: AMES SALMONELLA TYPHIMURIUM, Strain/Indicator: TA104, Metabolic Activation: NONE, Method: STANDARD PLATE inactive; negative | Test System: AMES SALMONELLA TYPHIMURIUM, Strain/Indicator: TA104, Metabolic Activation: RAT, LIVER, S-9, AROCLOR 1254, Method: STANDARD PLATE inactive; negative

CC(=O)[C@]1(O)Cc2c(O)c3c(c(O)c2[C@@H](O)C1)C(=O)c1c(O)cccc1C3=O
inactive: [4] inactive; negative | Test System: AMES SALMONELLA TYPHIMURIUM, Strain/Indicator: TA1538, Metabolic Activation: NONE, Method: STANDARD PLATE inactive; negative
active: [2] active; positive | [3] active; positive

CS(=O)CCCC/C(=N\OS(=O)(=O)O)S[C@@H]1O[C@H](CO)[C@@H](O)[C@H](O)[C@H]1O (some centres undefined)
inactive: End Point: IN VITRO MICRONUCLEUS, Test System: HUMAN T-LYMPHOCYTES, Metabolic Activation: NONE inactive; negative

CCCC[N+](=O)[O-]
inactive: [5] inactive; negative | Test System: AMES SALMONELLA TYPHIMURIUM, Strain/Indicator: TA98, Metabolic Activation: RAT, LIVER, S-9, AROCLOR, Method: PREINCUBATION inactive; negative | Test System: AMES SALMONELLA TYPHIMURIUM, Strain/Indicator: TA98, Metabolic Activation: RAT, LIVER, S-9, KANECHLOR 500, Method: PREINCUBATION inactive; negative | [6] inactive; negative | Test System: AMES SALMONELLA TYPHIMURIUM, Strain/Indicator: TA100, Metabolic Activation: RAT, LIVER, S-9, AROCLOR, Method: PREINCUBATION inactive; negative | Test System: AMES SALMONELLA TYPHIMURIUM, Strain/Indicator: TA100, Metabolic Activation: RAT, LIVER, S-9, KANECHLOR 500, Method: PREINCUBATION inactive; negative | Test System: AMES SALMONELLA TYPHIMURIUM, Strain/Indicator: TA102, Metabolic Activation: NONE, Method: PREINCUBATION inactive; negative | Test System: AMES SALMONELLA TYPHIMURIUM, Strain/Indicator: TA102, Metabolic Activation: RAT, LIVER, S-9, AROCLOR, Method: PREINCUBATION inactive; negative | Test System: E. COLI, Strain/Indicator: WP2 UVRA (PKM101), Metabolic Activation: NONE, Method: PREINCUBATION inactive; negative | Test System: E. COLI, Strain/Indicator: WP2 UVRA (PKM101), Metabolic Activation: RAT, LIVER, S-9, KANECHLOR 500, Method: PREINCUBATION inactive; negative | Test System: UDS RAT HEPATOCYTES, Strain/Indicator: THY INCORP, Metabolic Activation: NONE inactive; negative

O=CNNc1nc(-c2ccc([N+](=O)[O-])o2)cs1
active: Test System: AMES SALMONELLA TYPHIMURIUM, Strain/Indicator: TA100, Metabolic Activation: RAT, LIVER, S-9, KC500 OR PHENOBARBITAL, Method: LIQUID SUSPENSION active; positive | Test System: E. COLI, Strain/Indicator: WP2, Metabolic Activation: NONE, Method: SPOT active; positive | Test System: E. COLI, Strain/Indicator: WP2 UVRA, Metabolic Activation: NONE, Method: SPOT active; positive

O=[N+]([O-])c1cccc2cc3ccccc3cc12
active: [5] active; positive | Test System: AMES SALMONELLA TYPHIMURIUM, Strain/Indicator: TA98, Metabolic Activation: RAT, LIVER, S-9, AROCLOR 1254 (10%), Method: PREINCUBATION active; positive | [6] active; positive | Test System: AMES SALMONELLA TYPHIMURIUM, Strain/Indicator: TA100, Metabolic Activation: RAT, LIVER, S-9, AROCLOR 1254 (10%), Method: PREINCUBATION active; positive

N/C(=N\O)c1cc(O)c(O)c(O)c1
inactive: [2] inactive; negative | Test System: AMES SALMONELLA TYPHIMURIUM, Strain/Indicator: TA98, Metabolic Activation: RAT, LIVER, S-9, DELOR 103, Method: STANDARD PLATE inactive; negative | [4] inactive; negative | Test System: AMES SALMONELLA TYPHIMURIUM, Strain/Indicator: TA100, Metabolic Activation: RAT, LIVER, S-9, DELOR 103, Method: STANDARD PLATE inactive; negative | Test System: AMES SALMONELLA TYPHIMURIUM, Strain/Indicator: TA102, Metabolic Activation: NONE, Method: STANDARD PLATE inactive; negative | Test System: AMES SALMONELLA TYPHIMURIUM, Strain/Indicator: TA102, Metabolic Activation: RAT, LIVER, S-9, DELOR 103, Method: STANDARD PLATE inactive; negative
active: [1] active; positive | Test System: AMES SALMONELLA TYPHIMURIUM, Strain/Indicator: TA97, Metabolic Activation: RAT, LIVER, S-9, DELOR 103, Method: STANDARD PLATE active; positive

c1ccc(CNc2ncnc3nc[nH]c23)cc1
inactive: [2] inactive; negative | Test System: AMES SALMONELLA TYPHIMURIUM, Strain/Indicator: TA98, Metabolic Activation: RAT LIVER S-9, 3-METHYLCHOLANTHRENE AND PHENOBARBITAL, Method: STANDARD PLATE inactive; negative | Test System: AMES SALMONELLA TYPHIMURIUM, Strain/Indicator: TA98, Metabolic Activation: RAT, LIVER, S-9, AROCLOR, Method: STANDARD PLATE inactive; negative | [4] inactive; negative | Test System: AMES SALMONELLA TYPHIMURIUM, Strain/Indicator: TA100, Metabolic Activation: RAT LIVER S-9, 3-METHYLCHOLANTHRENE AND PHENOBARBITAL, Method: STANDARD PLATE inactive; negative | Test System: AMES SALMONELLA TYPHIMURIUM, Strain/Indicator: TA100, Metabolic Activation: RAT, LIVER, S-9, AROCLOR, Method: STANDARD PLATE inactive; negative | Test System: CHINESE HAMSTER V-79, Strain/Indicator: V-79/6-THIOGUANINE (HGPRT), Metabolic Activation: NONE, Method: STANDARD PLATE inactive; negative

[O-][n+]1ccc2cnncc2c1
active: [5] active; positive | Test System: AMES SALMONELLA TYPHIMURIUM, Strain/Indicator: TA98, Metabolic Activation: RAT, LIVER, S-9, PCB, Method: PREINCUBATION active; positive | Test System: AMES SALMONELLA TYPHIMURIUM, Strain/Indicator: TA100, Metabolic Activation: RAT, LIVER, S-9, PCB, Method: PREINCUBATION active; positive
inactive: [6] inactive; negative

Fc1cc2ccccc2c2ncccc12
active: Test System: AMES SALMONELLA TYPHIMURIUM, Strain/Indicator: TA100, Metabolic Activation: RAT, LIVER, S-9, PHENOBARBITAL AND 5,6-BENZOFLAVONE, Method: PREINCUBATION active; positive

O=C(Cl)C(Cl)(Cl)Cl
active: Test System: AMES SALMONELLA TYPHIMURIUM, Strain/Indicator: TA100, Metabolic Activation: NONE, Method: BAG VAPORIZATION active; positive | Test System: AMES SALMONELLA TYPHIMURIUM, Strain/Indicator: TA100, Metabolic Activation: RAT, LIVER, S-9, AROCLOR 1254, Method: BAG VAPORIZATION active; positive

c1cc2c3c(c1)ccc1cccc(c13)C1OC21 (centres undefined)
inactive: Test System: CHINESE HAMSTER OVARY, Strain/Indicator: CHO (HGPRT)/6-THIOGUANINE, Metabolic Activation: RAT, LIVER, S-9, AROCLOR 1254, Method: STANDARD PLATE inactive; negative
active: Test System: CHINESE HAMSTER OVARY, Strain/Indicator: CHO (HGPRT)/6-THIOGUANINE, Metabolic Activation: NONE, Method: STANDARD PLATE active; positive | Test System: UDS RODENT HEPATOCYTES, Strain/Indicator: THY INCORP, Metabolic Activation: NONE, Method: AUTORADIOGRAPHY active; positive

O=CC(Cl)Cl
inactive: Test System: CHINESE HAMSTER V-79, Strain/Indicator: V-79/OUABAIN, Metabolic Activation: NONE inactive; negative | Test System: UDS HUMAN CELLS, Strain/Indicator: EUE LINE/THY INCORP, Metabolic Activation: NONE, Method: AUTORADIOGRAPHY inactive; negative

C#CC(OC(=O)NC1CCCCC1)(c1ccccc1)c1ccccc1
active: [4] active; positive
